Results as given in ChEMBL document CHEMBL1201862, “PubChem BioAssay data set” (2004).
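Results reflect a 48-hour exposure of cells in 96-well plates to compound at five concentrations. Here, GI50 denotes the concentration required for 50% inhibition of growth.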 Active and inactive are the calls of the source. Cut-off read from the data, not from the text of the source: active = GI50 up to about 1.1 µM and inactive = higher.

How the values were obtained:
Test in all cases: NCI anticancer screen, dose series, 48 h
OVCAR-4 = test system: OVCAR-4
SK-OV-3 = test system: SK-OV-3
SK-MEL-28 = test system: SK-MEL-28
HOP-92 = test system: HOP-92
EKVX = test system: EKVX
UACC-257 = test system: UACC-257
A549 = test system: A549
KM12 = test system: KM12
LOX IMVI = test system: LOX IMVI
OVCAR-3 = test system: OVCAR-3
HT-29 = test system: HT-29
NCI-H522 = test system: NCI-H522
NCI-H23 = test system: NCI-H23
SNB-75 = test system: SNB-75
HL-60 = test system: HL-60
RPMI-8226 = test system: RPMI-8226
SR = test system: SR

Structure (SMILES) | GI50 (OVCAR-4) | GI50 (SK-OV-3) | GI50 (SK-MEL-28) | GI50 (HOP-92) | GI50 (EKVX) | GI50 (UACC-257) | GI50 (A549) | GI50 (KM12) | GI50 (LOX IMVI) | GI50 (OVCAR-3) | GI50 (HT-29) | GI50 (NCI-H522) | GI50 (NCI-H23) | GI50 (SNB-75) | GI50 (HL-60) | GI50 (RPMI-8226) | GI50 (SR)
CN(C)NC(=S)NC12CC3CC(CC(C3)C1)C2 | > 100 µM (inactive) | > 100 µM (inactive) | > 100 µM (inactive) | 91.2 µM (inactive) | > 100 µM (inactive) | > 100 µM (inactive) | > 100 µM (inactive) | > 100 µM (inactive) | > 100 µM (inactive) | > 100 µM (inactive) | > 100 µM (inactive) | > 100 µM (inactive) | > 100 µM (inactive) | > 100 µM (inactive) | > 100 µM (inactive) |  | 
O=C1CCCc2c(O)ccc(O)c21 | > 100 µM (inactive) | > 100 µM (inactive) | > 100 µM (inactive) |  | 85.7 µM (inactive) | > 100 µM (inactive) | > 100 µM (inactive) | > 100 µM (inactive) | > 100 µM (inactive) | > 100 µM (inactive) | > 100 µM (inactive) | 12.6 µM (inactive) | > 100 µM (inactive) | 38.5 µM (inactive) | 22.8 µM (inactive) | 40.6 µM (inactive) | 28.3 µM (inactive)
O=C1CCSC2=C1SCc1sccc12 | > 100 µM (inactive) | > 100 µM (inactive) | > 100 µM (inactive) | > 100 µM (inactive) | 93.5 µM (inactive) | > 100 µM (inactive) | > 100 µM (inactive) | > 100 µM (inactive) | > 100 µM (inactive) | > 100 µM (inactive) |  | > 100 µM (inactive) | > 100 µM (inactive) | 30.5 µM (inactive) | > 100 µM (inactive) | 79.3 µM (inactive) | 
CCOc1cc2c(cnc3c4cc(OC)c(OC)cc4ccc23)cc1OC | > 100 µM (inactive) | > 100 µM (inactive) | > 100 µM (inactive) |  | > 100 µM (inactive) | > 100 µM (inactive) | > 100 µM (inactive) | > 100 µM (inactive) |  | > 100 µM (inactive) | > 100 µM (inactive) | > 100 µM (inactive) | > 100 µM (inactive) | > 100 µM (inactive) |  | > 100 µM (inactive) | 
CCOC(=O)[C@H]1CSC[C@@H](C(=O)OC)N1 | > 100 µM (inactive) | > 100 µM (inactive) | > 100 µM (inactive) |  | > 100 µM (inactive) | > 100 µM (inactive) | > 100 µM (inactive) | > 100 µM (inactive) | > 100 µM (inactive) | > 100 µM (inactive) | > 100 µM (inactive) | > 100 µM (inactive) | > 100 µM (inactive) | 23.1 µM (inactive) | > 100 µM (inactive) | > 100 µM (inactive) | > 100 µM (inactive)
CC(=O)Nc1ccc(/C=C2\N=C(c3ccccc3)OC2=O)cc1 | > 100 µM (inactive) | > 100 µM (inactive) | > 100 µM (inactive) | 62.5 µM (inactive) | > 100 µM (inactive) | > 100 µM (inactive) | > 100 µM (inactive) | 68.7 µM (inactive) | 80.2 µM (inactive) |  |  |  | > 100 µM (inactive) | 64.9 µM (inactive) | 76.7 µM (inactive) | 48.8 µM (inactive) | 
CN(N=O)C(=O)ON1C(=O)CCC1=O | > 100 µM (inactive) | > 100 µM (inactive) | > 100 µM (inactive) | > 100 µM (inactive) | > 100 µM (inactive) | > 100 µM (inactive) | > 100 µM (inactive) | > 100 µM (inactive) | > 100 µM (inactive) | > 100 µM (inactive) | > 100 µM (inactive) | > 100 µM (inactive) | > 100 µM (inactive) | 54.1 µM (inactive) | > 100 µM (inactive) | > 100 µM (inactive) | 
O=C1CCCCC1C1(O)C(=O)Nc2cc(F)ccc21 (stereo unspecified) | > 100 µM (inactive) | > 100 µM (inactive) | > 100 µM (inactive) | > 100 µM (inactive) | > 100 µM (inactive) | > 100 µM (inactive) | > 100 µM (inactive) | > 100 µM (inactive) | > 100 µM (inactive) |  | > 100 µM (inactive) | > 100 µM (inactive) | > 100 µM (inactive) | > 100 µM (inactive) | > 100 µM (inactive) | > 100 µM (inactive) | 
CCCC(=O)CC(C)C(=O)C(=O)NC12CC3CC(CC(C3)C1)C2 (stereo unspecified) | > 100 µM (inactive) |  | > 100 µM (inactive) | 22.3 µM (inactive) | > 100 µM (inactive) | > 100 µM (inactive) | > 100 µM (inactive) | > 100 µM (inactive) | > 100 µM (inactive) | > 100 µM (inactive) | > 100 µM (inactive) | > 100 µM (inactive) | > 100 µM (inactive) | 97.5 µM (inactive) | > 100 µM (inactive) | > 100 µM (inactive) | 
N#CC1C[C@@H]2CC3(CCC2CN1C(=O)c1ccccc1)OCCO3 (stereo partly specified) | > 100 µM (inactive) | > 100 µM (inactive) | > 100 µM (inactive) | > 100 µM (inactive) | > 100 µM (inactive) | > 100 µM (inactive) | > 100 µM (inactive) | > 100 µM (inactive) | > 100 µM (inactive) | > 100 µM (inactive) | > 100 µM (inactive) |  | > 100 µM (inactive) | > 100 µM (inactive) | > 100 µM (inactive) | > 100 µM (inactive) | 0.607 µM (active)
C=CN1C(=O)OC[C@@H]1c1ccccc1 | > 100 µM (inactive) | > 100 µM (inactive) | > 100 µM (inactive) | > 100 µM (inactive) | > 100 µM (inactive) | > 100 µM (inactive) | > 100 µM (inactive) | > 100 µM (inactive) | 67 µM (inactive) | > 100 µM (inactive) | > 100 µM (inactive) | > 100 µM (inactive) | > 100 µM (inactive) | > 100 µM (inactive) | > 100 µM (inactive) | 34.3 µM (inactive) | 
O=S1(=O)c2ccccc2NC(c2ccc3ccccc3c2)CC1c1ccccc1F (stereo unspecified) | > 100 µM (inactive) | > 100 µM (inactive) | > 100 µM (inactive) |  | > 100 µM (inactive) | > 100 µM (inactive) | > 100 µM (inactive) | > 100 µM (inactive) | > 100 µM (inactive) | > 100 µM (inactive) | > 100 µM (inactive) | > 100 µM (inactive) | > 100 µM (inactive) | > 100 µM (inactive) | > 100 µM (inactive) | > 100 µM (inactive) | 
O=C(CP(=O)(O)O)c1cccs1 |  | > 100 µM (inactive) | > 100 µM (inactive) | > 100 µM (inactive) | > 100 µM (inactive) | > 100 µM (inactive) | > 100 µM (inactive) | > 100 µM (inactive) | > 100 µM (inactive) | > 100 µM (inactive) | > 100 µM (inactive) | > 100 µM (inactive) | > 100 µM (inactive) | > 100 µM (inactive) | > 100 µM (inactive) | > 100 µM (inactive) | 
